Earlier results, collected in US9414584B2, “Stabilized hypohalous acid solutions” (PURICORE, INC., priority 2011, dated 2016).
Like-named read-outs stand apart in the source and are kept apart here.

Columns and labels:
[1] = test system: S. typhosa
[2] = test system: Escherichia coli; conditions: Escherichia coli exposed to hypochlorous acid
[3] = test system: A. aerogenes
[4] = test system: S. dysenteriae
[5] = test system: E. coli
[6] = test system: E. coli; conditions: 2.6 ppm; dilute bacterial suspensions; about 5 minutes

SMILES	time for 25 mg/mL solution to reach 20 mg/mL of free residual chlorine (20° C., Arrhenius calculation from studies at 50° C. and 70° C.)	loss of titrable chlorine (in the first 6 months)	loss of titrable chlorine (within a year)	concentration required for 100% kill in 5 minutes [1]	time to lose viability [2]	concentration required for 100% kill in 5 minutes [3]	concentration required for 100% kill in 5 minutes [4]	concentration required for 100% kill in 5 minutes [5]	growth inhibition of E. coli [6]
OCl [sodium hypochlorite solution, sodium hypochlorite]	166 days	approximately 20%	up to 60%	–	–	–	–	–	–
OCl [hypochlorous acid]	–	–	–	0.06 ppm	less than 100 ms	0.08 ppm	0.05 ppm	0.03 ppm	100%
